Measurements reported in PubChem BioAssay (NCI).
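The compound was tested at five concentrations on cells cultured in 96-well plates, with a 48-hour exposure period. GI50 marks 50% less growth. TGI is the concentration that stops growth completely.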

How the values were obtained:
Assay in all cases: DTP human tumour cell line panel, 48 h
OVCAR-3 ovarian = system: OVCAR-3 ovarian
SK-OV-3 ovarian = system: SK-OV-3 ovarian
CCRF-CEM leukemia = system: CCRF-CEM leukemia
M14 melanoma = system: M14 melanoma
HOP-92 NSCLC = system: HOP-92 NSCLC
NCI-H522 lung = system: NCI-H522 lung
IGROV1 ovarian = system: IGROV1 ovarian
HS 578T breast = system: HS 578T breast
SNB-19 CNS = system: SNB-19 CNS
UO-31 renal = system: UO-31 renal

Structure (SMILES)	GI50 (OVCAR-3 ovarian) [µM]	TGI (OVCAR-3 ovarian) [µM]	GI50 (SK-OV-3 ovarian) [µM]	TGI (SK-OV-3 ovarian) [µM]	GI50 (CCRF-CEM leukemia) [µM]	TGI (CCRF-CEM leukemia) [µM]	GI50 (M14 melanoma) [µM]	TGI (M14 melanoma) [µM]	GI50 (HOP-92 NSCLC) [µM]	TGI (HOP-92 NSCLC) [µM]	GI50 (NCI-H522 lung) [µM]	TGI (NCI-H522 lung) [µM]	GI50 (IGROV1 ovarian) [µM]	TGI (IGROV1 ovarian) [µM]	GI50 (HS 578T breast) [µM]	TGI (HS 578T breast) [µM]	GI50 (SNB-19 CNS) [µM]	TGI (SNB-19 CNS) [µM]	GI50 (UO-31 renal) [µM]	TGI (UO-31 renal) [µM]
c1ccc(-c2nc3n(c2-c2ccc4c(c2)OCO4)CCC3)nc1	7.69	> 22.6	4.54	14.7	7.63	> 25	6.77	> 20.3	3.48	20.8	8.14	> 25	7.37	> 23.2	8.24	> 25	8.74	> 25	0.611	8.58
CCCN(CCC)c1ccc(C=O)c(Cl)c1	1.67	6.7	24.4	> 100	35.5	> 100	26	> 100	9.64	36	25.2	82.2	0.558	7.18	22.9	> 96.8	25.8	> 100	19.7	> 83.8
O=C1/C(=C\c2ccco2)Oc2ccccc21		> 100		> 100		> 100		> 100		> 100		> 100		> 100		> 100		> 100		> 100
O=C(c1ccc2ccccc2c1)c1nc2cc(F)ccc2[n+]([O-])c1C(F)(F)F	16.3	29.9	19.4	34.1	22.5	66.3	17.8	34	19.5	36.5	13.6	29.8	8.36	21.6	21.9	56.9	19.4	37.8	9.42	48.8
CSc1ncnc2c1ncn2CC(=O)C1CCC2C3CCC4=CC(=O)CCC4(C)C3CCC12C (stereo not drawn)		25.8		> 100		2.16		8.88		> 88.3		24.5		> 100		> 100		> 100		2.52
COc1cc(F)ccc1-c1cc(Nc2cc(CS(C)(=N)=O)ccn2)ncc1F (stereo not drawn)	0.0803	> 100	0.638	> 100	0.0344	> 100	0.0649	> 37.6	0.0214	0.314	0.248	2.17	0.0571	> 100	0.0919		0.0644	> 100	0.0337	> 100
Cn1cc(-c2cc(-c3cn(C)c4ccc(Cl)cc34)[nH]n2)c2cc(Cl)ccc21	4.41	40.6	5.81	> 100	6.4	23.8	2.15	5.3	1.86	4.74	1.75	3.84	2.55	6.37	3.27	20	4.09	20.1	3.01	14.8
COc1ccc(-c2c(C#N)c(N)nc(N3CCOCC3)c2C#N)cc1	12.9	45.4	4.99	27.3	17.9	> 100	22.6	72.8	14.3	87.7	8.65	43.6	3.08	21	17.5	64.4	21.8	> 100	13.1	49.2
CCSc1ccc([C@@H]2[C@@H](O)C(=O)N2c2cc(OC)c(OC)c(OC)c2)cc1	< 0.01	0.548	0.0271	38.1	< 0.0171	> 100	< 0.01	15.8		42.1	< 0.01	< 0.0119	0.0235	66.2	< 0.01	> 69.2	< 0.01	> 100	0.21	34.2
